The source of these data is ChEMBL document CHEMBL1201862, “PubChem BioAssay data set” (2004).

The term GI50 denotes the concentration at which growth is held to half of that of the control.

Each structure is given as a SMILES string.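 These data come from cells grown in 96-well plates and exposed to compound for 48 hours at five concentrations. GI50 is the concentration that inhibits growth by half.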 Active and inactive are the calls of the source. No stated cut-off is given here; in the data, active = GI50 up to about 1.1 µM and inactive = higher.

Among the test systems are KM12; SK-OV-3; MCF7; SNB-75; SW-620; HOP-92; A549; UO-31; NCI-H522; HCT-15; NCI/ADR-RES; RXF 393; A498; NCI-H460; UACC-62; IGROV-1; OVCAR-4; SNB-78; DMS-273; DMS-114.
Common to all, as to assay: DTP human tumour cell line panel, 48 h

For `CCOC(=O)C1(CO)CSCCSC1`, the GI50 in the assay with KM12, in the assay with SK-OV-3, in the assay on MCF7, in the assay with SNB-75, in the assay with SW-620 and in the assay on HOP-92 was > 100 µM (inactive) each time. The GI50 in the assay with A549 is > 100 µM (inactive); in the assay with UO-31, > 100 µM (inactive); in the assay with NCI-H522 it was > 100 µM (inactive); with HCT-15, greater than 100 µM; with NCI/ADR-RES it was > 100 µM (inactive); in the assay on RXF 393 it was > 100 µM (inactive). Moreover, the GI50 in the assay on A498 and in the assay with NCI-H460 was > 100 µM (inactive) in each case.
Regarding `O=C(O)c1cc([N+](=O)[O-])cc2c(=O)c3cnccc3[nH]c12`, the GI50 is > 100 µM (inactive) in the assay on KM12; 65.2 µM (inactive) with UACC-62; > 100 µM (inactive) with SK-OV-3; > 100 µM (inactive) with IGROV-1; > 100 µM (inactive) with MCF7; > 100 µM (inactive) in the assay on SNB-75. Besides, the GI50 is > 100 µM (inactive) with UO-31; > 100 µM (inactive) with NCI-H522; greater than 100 µM in the assay on HCT-15; > 100 µM (inactive) in the assay on NCI/ADR-RES; > 100 µM (inactive) in the assay with OVCAR-4; > 100 µM (inactive) in the assay with RXF 393. For the same molecule, the GI50 in the assay with A498 and in the assay on NCI-H460 was > 100 µM (inactive) in each case.
As for `CSc1nc2c(ncn2C2OC(CO)C(O)C(O)C2O)c(=O)[nH]1` (configuration not stated), the GI50 with KM12, in the assay with UACC-62, in the assay with SNB-78, in the assay on SK-OV-3, in the assay with DMS-273 and with IGROV-1 was > 100 µM (inactive) in each case. Moreover, the GI50 with MCF7, with SNB-75, in the assay with SW-620, with HOP-92, with A549 and in the assay with UO-31 was > 100 µM (inactive) each time. The GI50 in the assay on NCI-H522 was > 100 µM (inactive); in the assay on HCT-15, greater than 100 µM; in the assay on NCI/ADR-RES, > 100 µM (inactive); in the assay on OVCAR-4, > 100 µM (inactive); with RXF 393 it was > 100 µM (inactive); with DMS-114, > 100 µM (inactive). In addition, the GI50 in the assay with A498 and in the assay with NCI-H460 was > 100 µM (inactive) in each case.
With `O=S(=O)(CF)OCCCCOS(=O)(=O)CF`, the GI50 was > 100 µM (inactive) in the assay with UACC-62; > 100 µM (inactive) in the assay on SNB-78; > 100 µM (inactive) with SK-OV-3; 75.9 µM (inactive) in the assay with DMS-273; > 100 µM (inactive) in the assay on IGROV-1; 27.7 µM (inactive) with SNB-75. The GI50 with SW-620 was > 100 µM (inactive); with HOP-92 it was 0.701 µM (active); with UO-31 it was > 100 µM (inactive); with NCI-H522, > 100 µM (inactive); in the assay on HCT-15 it was greater than 100 µM; with DMS-114 it was 74 µM (inactive). Moreover, the results for the GI50 in the assay on A498 and with NCI-H460 were > 100 µM (inactive) and 23.8 µM (inactive), respectively.
On to `CCc1nnc(-c2nsc3ccccc23)s1`, for which the GI50 in the assay on KM12 is > 100 µM (inactive); with UACC-62, > 100 µM (inactive); in the assay on SNB-78 it was > 100 µM (inactive); with DMS-273 it was > 100 µM (inactive); in the assay with IGROV-1 it was 76.9 µM (inactive); in the assay with SNB-75, 35.9 µM (inactive). Further, the GI50 with SW-620 was > 100 µM (inactive); in the assay with HOP-92 it was 69.5 µM (inactive); with A549, > 100 µM (inactive); in the assay on UO-31, 34 µM (inactive); in the assay with HCT-15, 72.4 µM; with OVCAR-4 it was > 100 µM (inactive). Moreover, the GI50 with RXF 393, in the assay on DMS-114 and in the assay with NCI-H460 was > 100 µM (inactive) throughout.
